Source: patent US12655116B2, “Substituted isophthalic acid diamides” (Bayer Aktiengesellschaft, priority 2020, dated 2026)

Legend:
ALOMY [1] = experiment: Pre-emergence herbicidal action against ALOMY; assay type: in vivo, Alopecurus myosuroides
Outline: (§1)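 Visual rating at 3 weeks vs untreated pots; 0–100% scale, 100% = plants died. Treatment: aqueous WP/EC spray onto covering soil, 600–800 l/ha, 0.2% wetter, seeds in sandy loam.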

AVEFA [2] = experiment: Post-emergence herbicidal action against AVEFA; assay type: in vivo, Avena fatua; conditions: visual assessment about 3 weeks after treatment, 100% = plants have died, 0% = like control plants
Outline: (§2)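 Greenhouse pot plants in sandy loam were sprayed at the one-leaf stage, 2 to 3 weeks after sowing, with WP or EC formulations as aqueous suspension or emulsion (600 to 800 l/ha water, 0.2% wetting agent). About 3 weeks later, damage was scored visually against untreated controls as % action (100% = dead, 0% = like control).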

AVEFA [3] = experiment: Pre-emergence herbicidal action against AVEFA; assay type: in vivo, Avena fatua; conditions: 80 g/ha, pre-emergence
Outline: as §1

VERPE [4] = experiment: Post-emergence herbicidal action against VERPE; assay type: in vivo, Veronica persica
Outline: as §2

AMARE [5] = experiment: Post-emergence herbicidal action against AMARE; assay type: in vivo, Amaranthus retroflexus; conditions: 20 g/ha, visual assessment about 3 weeks after treatment, 100% = plants have died, 0% = like control plants
Outline: as §2

PHBPU [6] = experiment: Pre-emergence herbicidal action against PHBPU; assay type: in vivo, Pharbitis purpurea; conditions: dosage 80 g/ha
Outline: as §1

AMARE [7] = experiment: Pre-emergence herbicidal action against AMARE; assay type: in vivo, Amaranthus retroflexus
Outline: as §1

DIGSA [8] = experiment: Post-emergence herbicidal action against DIGSA; assay type: in vivo, Digitaria sanguinalis; conditions: 20 g/ha
Outline: as §2

SETVI [9] = experiment: Pre-emergence herbicidal action against SETVI; assay type: in vivo, Setaria viridis
Outline: as §1

POLCO = experiment: Pre-emergence herbicidal action against POLCO; assay type: in vivo, Polygonum convolvulus; conditions: dosage 80 g/ha
Outline: as §1

ABUTH [10] = experiment: Pre-emergence herbicidal action against ABUTH; assay type: in vivo, Abutilon theophrasti
Outline: as §1

PHBPU [11] = experiment: Post-emergence herbicidal action against PHBPU; assay type: in vivo, Pharbitis purpurea; conditions: dosage 20 g/ha
Outline: as §2

ABUTH [12] = experiment: Post-emergence herbicidal action against ABUTH; assay type: in vivo, Abutilon theophrasti; conditions: dosage 20 g/ha, visual assessment about 3 weeks after treatment vs untreated controls
Outline: as §2

MATIN [13] = experiment: Pre-emergence herbicidal action against MATIN; assay type: in vivo, Matricaria inodora
Outline: as §1

ALOMY [14] = experiment: Post-emergence herbicidal action against ALOMY; assay type: in vivo, Alopecurus myosuroides; conditions: visual assessment about 3 weeks after treatment vs untreated controls
Outline: as §2

ECHCG [15] = experiment: Post-emergence herbicidal action against ECHCG; assay type: in vivo, Echinochloa crus-galli; conditions: dosage 20 g/ha
Outline: as §2

ECHCG [16] = experiment: Pre-emergence herbicidal action against ECHCG; assay type: in vivo, Echinochloa crus-galli
Outline: as §1

DIGSA [17] = experiment: Pre-emergence herbicidal action against DIGSA; assay type: in vivo, Digitaria sanguinalis
Outline: as §1

VIOTR [18] = experiment: Post-emergence herbicidal action against VIOTR; assay type: in vivo, Viola tricolor
Outline: as §2

SETVI [19] = experiment: Post-emergence herbicidal action against SETVI; assay type: in vivo, Setaria viridis; conditions: dosage 20 g/ha
Outline: as §2

VIOTR [20] = experiment: Pre-emergence herbicidal action against VIOTR; assay type: in vivo, Viola tricolor
Outline: as §1

LOLRI = experiment: Pre-emergence herbicidal action against LOLRI; assay type: in vivo, Lolium rigidum; conditions: 80 g/ha
Outline: as §1

VERPE [21] = experiment: Pre-emergence herbicidal action against VERPE; assay type: in vivo, Veronica persica; conditions: dosage 80 g/ha
Outline: as §1

MATIN [22] = experiment: Post-emergence herbicidal action against MATIN; assay type: in vivo, Matricaria inodora; conditions: dosage 20 g/ha
Outline: as §2

[23] = 80 g/ha, scored visually after 3 weeks vs untreated controls (100% = plants have died, 0% = like control plants)

## Cn1nnnc1NC(=O)c1ccc(C(F)(F)F)c(C(=O)NCC2CC2)c1Cl [Example 1-132]
ALOMY [1]; 20 g/ha, scored visually after 3 weeks, 100% = plants have died, 0% = like control plants
  Pre-emergence action against ALOMY: 80%
ALOMY [1]; 80 g/ha, pre-emergence, scored visually after 3 weeks vs untreated controls (100% = plants have died, 0% = like control plants)
  Pre-emergence action against ALOMY (herbicidal activity): 100%
AVEFA [2]; 5 g/ha
  Post-emergence action at 5 g/ha against AVEFA in %: 80%
AVEFA [2]; 20 g/ha
  Post-emergence action at 20 g/ha against AVEFA in %: 90%
AVEFA [3]
  Pre-emergence action against AVEFA in %: 100%
VERPE [4]; 5 g/ha
  Post-emergence action against VERPE in %: 90%
VERPE [4]; 20 g/ha
  Post-emergence action against VERPE in %: 90%
AMARE [5]
  Post-emergence action at 20 g/ha against AMARE in %: 100%
PHBPU [6]
  Pre-emergence action against PHBPU in %: 80%
AMARE [7]; 20 g/ha, scored visually after 3 weeks vs untreated controls, 100% = plants have died, 0% = like control plants
  Pre-emergence action against AMARE in %: 100%
AMARE [7]; [23]
  Pre-emergence action against AMARE in %: 100%
DIGSA [8]
  Post-emergence action against DIGSA: 90%
SETVI [9]; dosage 20 g/ha
  Pre-emergence action against SETVI in %: 80%
SETVI [9]; dosage 80 g/ha
  Pre-emergence action against SETVI in %: 100%
POLCO
  Pre-emergence action against POLCO in %: 80%
ABUTH [10]; [23]
  Pre-emergence action against ABUTH (herbicidal activity): 100%
ABUTH [10]; dosage 20 g/ha, scored visually after 3 weeks vs untreated controls, 100% = plants have died, 0% = like control plants
  Pre-emergence action against ABUTH (herbicidal activity in percent): 100%
PHBPU [11]
  Post-emergence action against PHBPU in %: 90%
ABUTH [12]
  Post-emergence action against ABUTH in %: 80%
MATIN [13]; dosage 20 g/ha
  Pre-emergence action against MATIN in %: 100%
MATIN [13]; dosage 80 g/ha
  Pre-emergence action against MATIN in %: 100%
ALOMY [14]; dosage 5 g/ha
  Post-emergence action against ALOMY in %: 80%
ALOMY [14]; dosage 20 g/ha
  Post-emergence action against ALOMY in %: 90%
ECHCG [15]
  Post-emergence action against ECHCG in %: 90%
ECHCG [16]; 20 g/ha
  Pre-emergence action against ECHCG in %: 90%
ECHCG [16]; 80 g/ha
  Pre-emergence action against ECHCG in %: 100%
DIGSA [17]; dosage 20 g/ha
  Pre-emergence action against DIGSA in %: 100%
DIGSA [17]; dosage 80 g/ha
  Pre-emergence action against DIGSA in %: 100%
VIOTR [18]; 5 g/ha
  Post-emergence action against VIOTR in %: 80%
VIOTR [18]; 20 g/ha
  Post-emergence action against VIOTR in %: 90%
SETVI [19]
  Post-emergence action against SETVI in %: 90%
VIOTR [20]; dosage 20 g/ha
  Pre-emergence action against VIOTR in %: 100%
VIOTR [20]; dosage 80 g/ha
  Pre-emergence action against VIOTR in %: 100%
LOLRI
  Pre-emergence action against LOLRI in %: 80%
VERPE [21]
  Pre-emergence action against VERPE in %: 100%
MATIN [22]
  Post-emergence action against MATIN in %: 80%
